The text below walks through data of PubChem BioAssay (NCI).

Among the test systems are K-562 leukemia; KM12 colon; LOX IMVI melanoma; M14 melanoma; MDA-MB-231 breast; MOLT-4 leukemia; NCI-H522 lung; SK-MEL-5 melanoma; SK-OV-3 ovarian; SNB-19 CNS.
Experiment in all cases: NCI anticancer screen, dose series, 48 h

“And” between values parts separate entries of the source, which are not always exact repeats. Identical values can stand only once.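 Test compounds were applied to cells in 96-well plates for 48 hours at 5 doses. Abbreviation: GI50, concentration required for 50% inhibition of growth. TGI: total growth inhibition.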

For the molecule `COc1ccc(C(=O)/C=C/c2ccc(OCc3ccccc3)c(OC)c2)cc1OC`, the GI50 in the assay on K-562 leukemia is 3.4 µM; in the assay with KM12 colon, 3.48 µM; in the assay with LOX IMVI melanoma it was 2.84 µM; in the assay with M14 melanoma it was 5.91 µM; with MDA-MB-231 breast, 3.7 µM; with MOLT-4 leukemia, 3.65 µM. Also, the GI50 with NCI-H522 lung is 2.34 µM; with SK-MEL-5 melanoma it was 3.61 µM; in the assay on SK-OV-3 ovarian it was 2.97 µM; in the assay on SNB-19 CNS, 5.31 µM. For the same molecule, the TGI in the assay with K-562 leukemia was over 100 µM; in the assay with KM12 colon it was over 100 µM; in the assay on LOX IMVI melanoma, 24.1 µM; in the assay with M14 melanoma it was over 100 µM; in the assay on MDA-MB-231 breast, over 100 µM; in the assay with MOLT-4 leukemia it was over 100 µM. Besides, the TGI with NCI-H522 lung is 6.54 µM; in the assay with SK-MEL-5 melanoma, 17.2 µM; in the assay on SK-OV-3 ovarian, 12.4 µM; in the assay with SNB-19 CNS it was over 100 µM.
For `CCN(CC)Cc1cc(Nc2cc(C(F)(F)F)c(C#N)c3nc4ccccc4n23)ccc1O`, the GI50 with K-562 leukemia is 3.1 µM; in the assay on KM12 colon, 2.42 µM; with LOX IMVI melanoma, 2.33 µM; in the assay on M14 melanoma it was 2.73 µM; in the assay with MDA-MB-231 breast, 1.95 µM; with MOLT-4 leukemia, 2.46 µM. In addition, the GI50 was 1.05 µM in the assay with NCI-H522 lung, 0.271 µM with SK-MEL-5 melanoma, 1.98 µM with SK-OV-3 ovarian and 4.39 µM in the assay with SNB-19 CNS. Moreover, the TGI in the assay on K-562 leukemia was over 100 µM; in the assay with KM12 colon, 8.22 µM; with LOX IMVI melanoma, 13.1 µM; in the assay with M14 melanoma, 13.9 µM; in the assay on MDA-MB-231 breast, 5.33 µM; in the assay on MOLT-4 leukemia, 75 µM. The TGI with NCI-H522 lung turned out to be 2.74 µM; in the assay on SK-MEL-5 melanoma, 1.66 µM; in the assay on SK-OV-3 ovarian, 8.59 µM; in the assay with SNB-19 CNS it was 36.2 µM.
With `CN(C)c1ccc2c(c1)OC(N)=C(C#N)C2c1ccc2c(c1)CCCN2C` (centres undefined), the GI50 in the assay with K-562 leukemia is 0.493 µM; with KM12 colon, 0.783 µM; in the assay with LOX IMVI melanoma it was 1.97 µM; in the assay with M14 melanoma it was 1.29 µM; in the assay with MDA-MB-231 breast, 3.52 µM; in the assay on MOLT-4 leukemia it was 3.38 µM. Moreover, the GI50 with NCI-H522 lung was 0.274 µM; with SK-MEL-5 melanoma, 0.733 µM; in the assay with SK-OV-3 ovarian, 2.52 µM; in the assay on SNB-19 CNS, 4.26 µM. For the same molecule, the TGI with K-562 leukemia is over 100 µM; in the assay with KM12 colon, over 100 µM; with LOX IMVI melanoma, 19.2 µM; in the assay with M14 melanoma it was 18.5 µM; with MDA-MB-231 breast it was over 100 µM; in the assay with MOLT-4 leukemia it was 24.5 µM. For the same molecule, the TGI was 1.47 µM in the assay with NCI-H522 lung, 12.8 µM in the assay with SK-MEL-5 melanoma, 25.8 µM in the assay on SK-OV-3 ovarian and over 100 µM with SNB-19 CNS.
As for `Cc1ccc(NC2=CC(=O)C(=O)c3ccccc32)c(C)c1`, the GI50 is 4.03 µM with K-562 leukemia; 2.82 µM in the assay on KM12 colon; 1.28 µM in the assay with LOX IMVI melanoma; 1.78 µM with M14 melanoma; 3.03 µM in the assay on MDA-MB-231 breast; 2.88 µM with MOLT-4 leukemia. Moreover, the GI50 was 1.52 µM in the assay on NCI-H522 lung, 1.44 µM with SK-MEL-5 melanoma, 13.8 µM in the assay on SK-OV-3 ovarian and 3.88 µM with SNB-19 CNS. Besides, the TGI in the assay on K-562 leukemia stood at 29.4 µM; with KM12 colon, 13.1 µM; in the assay on LOX IMVI melanoma it was 4.46 µM; in the assay with M14 melanoma it was 3.26 µM; in the assay on MDA-MB-231 breast, 19.4 µM; with MOLT-4 leukemia, 16.6 µM. The TGI was found to be 5.87 µM with NCI-H522 lung, 2.79 µM with SK-MEL-5 melanoma, 27.9 µM in the assay on SK-OV-3 ovarian and 15 µM with SNB-19 CNS.
On to `O=c1c2ccccc2n2cnc3ccc(NCCNCCO)c1c32`, for which the TGI with K-562 leukemia is over 51.1 µM; with KM12 colon, 5.72 µM; with LOX IMVI melanoma, 2.8 µM; in the assay on M14 melanoma it was 8.07 µM; in the assay with MDA-MB-231 breast, 6.58 µM; with MOLT-4 leukemia, 10.3 µM. Also, the TGI amounted to 6.2 µM with NCI-H522 lung, 5.4 µM in the assay with SK-MEL-5 melanoma, 19.6 µM in the assay with SK-OV-3 ovarian and 22.6 µM in the assay with SNB-19 CNS.
For the molecule `NCC(Cc1ccccc1)P(=O)(O)O` (centres undefined), the TGI in the assay on K-562 leukemia, in the assay with KM12 colon, with LOX IMVI melanoma, in the assay on M14 melanoma, in the assay with MDA-MB-231 breast and with MOLT-4 leukemia was over 100 µM each time. Further, the TGI in the assay on NCI-H522 lung, with SK-MEL-5 melanoma, in the assay on SK-OV-3 ovarian and in the assay on SNB-19 CNS was over 100 µM each time.
Consider `N#Cc1cccc(C2C3=C(COC3=O)N(CCO)c3cc4c(cc32)CCC4)c1` (centres undefined), for which the GI50 is 0.0732 µM in the assay on K-562 leukemia; 0.136 µM with KM12 colon; 0.292 µM in the assay with LOX IMVI melanoma; 0.0832 µM in the assay with M14 melanoma; 0.22 µM in the assay with MDA-MB-231 breast; 0.203 µM in the assay with MOLT-4 leukemia. For the same molecule, the GI50 is 0.025 µM in the assay on NCI-H522 lung, 0.146 µM in the assay on SK-MEL-5 melanoma, 0.215 µM in the assay on SK-OV-3 ovarian and 0.18 µM with SNB-19 CNS. Also, the TGI in the assay with K-562 leukemia is over 50 µM; in the assay with KM12 colon it was over 50 µM; in the assay with LOX IMVI melanoma, over 44.9 µM; in the assay on M14 melanoma, 0.293 µM; with MOLT-4 leukemia it was over 50 µM; in the assay with NCI-H522 lung it was 1.67 µM. Besides, the TGI in the assay with SK-MEL-5 melanoma was 2.87 µM; with SK-OV-3 ovarian, over 30.5 µM; in the assay on SNB-19 CNS, over 50 µM.
Take `Oc1c(I)cc(Cl)c2cccnc12`: the GI50 in the assay on K-562 leukemia was 3.91 µM; in the assay on KM12 colon, 5.98 µM and 18.2 µM; with LOX IMVI melanoma, 2.66 µM and 4.03 µM; with M14 melanoma, 2.08 µM; with MDA-MB-231 breast it was 3.54 µM and 2.7 µM; in the assay on MOLT-4 leukemia it was 3.37 µM and 3.12 µM. Also, the GI50 in the assay with NCI-H522 lung is 3.93 µM and 14.5 µM; in the assay on SK-MEL-5 melanoma it was 1.83 µM and 4.12 µM; in the assay on SK-OV-3 ovarian, 6.24 µM and 9.06 µM; with SNB-19 CNS, 3.71 µM and 9.32 µM. Moreover, the TGI in the assay on K-562 leukemia was over 100 µM; in the assay on KM12 colon it was 49.9 µM and 47.7 µM; in the assay with LOX IMVI melanoma it was 39.4 µM and 24.2 µM; with M14 melanoma, 4.37 µM; in the assay on MDA-MB-231 breast it was 35.2 µM and 12.8 µM; in the assay on MOLT-4 leukemia, 9.93 µM and 21.4 µM. Further, the TGI is 30.2 µM and 36.4 µM in the assay with NCI-H522 lung; 4.23 µM and 16.1 µM with SK-MEL-5 melanoma; 22 µM and > 100 µM with SK-OV-3 ovarian; over 100 µM with SNB-19 CNS.
